Key:
[1] = reported; cited from earlier work
[2] = Sensory profiling (QDA) by trained sensory panel, unstructured line scales 0-100; assay type: in vivo, human
From the text: A trained sensory panel at the Reading Sensory Science Centre (UK) were employed for sensory profiling of the samples. There were 10 panellists with between 1 and 9 years' experience. A QDA (quantitative descriptive analysis) profiling approach was taken. The panel used the same vocabulary that they had developed as a consensus for the tasting sessions including the term liquorice flavour which is characteristic note of steviol glycosides. The panel were retrained at the start of the sample set over 3 separate tasting sessions. This re-training focused on ensuring that they could reliably score sweetness relative to the new concentration of sucrose standard positions. Rating was carried out independently using unstructured lines scales (scaled 0-100), in duplicate, in isolated sensory booths. However, in order to improve discrimination for sweetness, the four sucrose samples were used as standards and the mean values for each of these samples, as agreed by the panel, are shown in Table 1 below. At the start of each scoring session the panel tasted the four reference samples in order of increasing strength to re-familiarise themselves with the positioning of these levels of sweetness on the line scale. The reference samples (10 mL) were served in transparent polystyrene cups (30 mL). They then palate cleansed with warm filtered tap water and low salt crackers (Carr's water crackers) before commencing the sample tasting session, and again between each sample scoring session. Samples, labelled with random 3 digit codes, were presented in a balanced presentation order in a monadic sequential manner with a maximum of 6 samples per day. Samples were served at 23-24° C. (room temperature) with air conditioning of the room set to 23° C.

Row | Structure (SMILES) | sweet potency relative to sucrose [1] [×] | Mean Rating (0-100), sweetness standard ([2]; Standard 1, sucrose 2.0 % w/v) | Mean Rating (0-100), sweetness standard ([2]; Standard 2, sucrose 4.0 % w/v) | Mean Rating (0-100), sweetness standard ([2]; Standard 3, sucrose 6.0 % w/v) | Mean Rating (0-100), sweetness standard ([2]; Standard 4, sucrose 8.0 % w/v)
1 | C[C@H](CC[C@@H](O[C@@H]1O[C@H](CO[C@@H]2O[C@H](CO)[C@@H](O)[C@H](O)[C@H]2O)[C@@H](O)[C@H](O)[C@H]1O[C@@H]1O[C@H](CO)[C@@H](O)[C@H](O)[C@H]1O)C(C)(C)O)[C@H]1CC[C@@]2(C)[C@@H]3CC=C4[C@@H](CC[C@H](O[C@@H]5O[C@H](CO[C@@H]6O[C@H](CO)[C@@H](O)[C@H](O)[C@H]6O)[C@@H](O)[C@H](O)[C@H]5O)C4(C)C)[C@]3(C)[C@H](O)C[C@]12C [Mogroside V] | ~400 |  |  |  | 
2 | OC[C@H]1O[C@@](CO)(O[C@H]2O[C@H](CO)[C@@H](O)[C@H](O)[C@H]2O)[C@@H](O)[C@@H]1O [Sucrose] |  | 10 | 35 | 75 | 100

Source: patent publication US20210030039A1, “Prebiotic Compositions And Methods Of Production Thereof” (Optibiotix Limited, priority 2018, published 2021)
